How the values were obtained:
[1] = set-up: method as in Possemiers et al., 2008; settings: ref Possemiers et al., 2008; cited from earlier work
[2] = Liver accumulation after intragastric IXA administration at various concentrations to rats for 28 days; type: in vivo, Sprague–Dawley rats; settings: rat liver; IXA 112.5–1500 mg/kg BW once a day for 28 days; Pearson
Description: Six‐week‐old female Sprague–Dawley rats (Charles River Laboratories Japan, Inc., Yokohama, Japan) were housed in a room maintained at 20–26°C on a 12‐h light–dark cycle. The initial BW of rats was 176–179 g. They were allowed free access to a commercial diet (CRF‐1) and water during the experiment. IXA dissolved in injection solution was administered intragastrically to rats (112.5, 225, 360, 450, and 1500 mg/kg BW) daily for 28 days using a gastric feeding tube. We also set up a control group to which the injection solution was administered. The final BW of rats was 231–241 g. The liver was collected the day after the last administration. The rats were fasted for 16–24 h before they were euthanized, but they had free access to water. Liver samples were stored at −80°C until analysis.
(§1) Tissue sample deconjugation was performed as described in a previous report with slight modifications (Tanaka et al., [2022]). Tissues were homogenized in phosphate‐buffered saline (pH 7.4), which was nine times the tissue volume. The tissue homogenate was incubated in 50 mmol/L ascorbic acid (one‐fifth the volume of phosphate‐buffered saline) and 1.67 μkat/100 μL of β‐glucuronidase type H‐1 in 0.1 mol/L sodium acetate buffer (pH 4.7, nine times the volume of the sample) for 2 h at 37°C. Then, 2.4 nmol of QTM was added to samples as an internal standard. The supernatant was isolated by centrifugation at 17 × 10^3 m/s^2 (Kubota) for 5 min at 4°C. Then, methanol (Kanto Kagaku, 25183‐2B) was added to the pellets, and they were shaken for 1 min. The methanol layer and pellets were separated by centrifugation at 17 × 10^3 m/s^2 (Kubota, RY1071‐A000) for 5 min at 4°C. Methanol extraction was repeated three times. Finally, methanol extracts were mixed with the supernatant (the composition of the mixture was 30% methanol) and then applied to an Inert Sep C8 (200 mg/3 mL; GL Sciences, Tokyo, Japan; 5010‐61082) cartridge. The cartridge was preconditioned with 6 mL of 2% acetic acid in methanol, and then 9 mL of 2% acetic acid in water. The extracted tissue was passed through the cartridge, and it was washed with 5 mL of 2% acetic acid in 30% methanol aq. The flavonoids were eluted with 10 mL of 2% acetic acid in methanol.
The plasma and tissue extracts were evaporated using a Centrifugal Evaporator (EYERA, Tokyo, Japan, CVE‐3000). The samples were stored at −80°C until the next day. Then, the samples were dissolved in 120 μL of a mobile phase solution and divided into two test tubes. […]
IXA and 8‐PN concentrations were determined by their respective standard curves using an internal standard method. […] Because clear peaks over 4.5 pmol/sample were detected for IXA and 8‐PN by visual evaluation, we determined that these concentrations were the peak limit of detections for each flavonoid. […]

[3] = Tissue and plasma accumulation after daily gavage administration of IXA to mice for 14 days; type: in vivo, C57/BL6 mice; settings: IXA 30 mg/kg BW daily 14 days, 24 h after final administration
Description: Animal species, age, sex, initial BW, feeding conditions, and dosage method were the same as those for the single gavage administration test, but the dose was 30 mg/kg BW. […] Daily gavage administration without fasting was performed at 12:00 PM for 14 days. The final BW was 21–26 g. Blood, brain, thymus, heart, lung, liver, spleen, kidney, and gastrocnemius muscle were collected 24 h after the final administration. The sample collection method was the same as that for the single gavage administration test.
Plasma samples were deconjugated by β‐glucuronidase type H‐1 (which has β‐glucuronidase and sulphatase activity; Sigma, St. Louis, MO, USA; G0751) to convert aglycon from conjugated metabolites of IXA and 8‐PN, as described in a previous report (Y. Tanaka et al., [2022]). Briefly, 100 μL of plasma was mixed with 900 μL of 0.1 mol/L sodium acetate buffer (pH 4.7), 200 μL of 50 mmol/L ascorbic acid, and 1 mL of 1.67 μkat/100 μL of β‐glucuronidase type H‐1, and then incubated for 30 min at 37°C. Then, 2.4 nmol of QTM was added to the samples as the internal standard. The liberated aglycone was extracted using ethyl acetate (Kanto Kagaku, 14,029‐2B).
as §1
The plasma and tissue extracts were evaporated using a Centrifugal Evaporator (EYERA, Tokyo, Japan, CVE‐3000). The samples were stored at −80°C until the next day. Then, the samples were dissolved in 120 μL of a mobile phase solution and divided into two test tubes. The first sample was injected into the HPLC with an ultraviolet detection system (Shimadzu, Kyoto, Japan).
IXA and 8‐PN concentrations were determined by their respective standard curves using an internal standard method. A Cadenza 3‐μm CD‐C18 HPLC column (CD005, 150 × 4.6 mm; Imtakt Corporation, Kyoto, Japan) was equipped for HPLC (λ = 295 nm). The mobile phase consisted of methanol:water:acetic acid (60:35:5, v/v/v). The flow rate was set at 1.0 mL/min. […] Because clear peaks over 4.5 pmol/sample were detected for IXA and 8‐PN by visual evaluation, we determined that these concentrations were the peak limit of detections for each flavonoid. We applied calibration curves in the IXA/QTM concentration ratio range of 0.007–35.1 (R ^2 = .9955).

4,7‐dihydroxy‐5‐methoxy‐8‐prenylflavanone [IXA]
rate of excretion into the feces [1]: approximately 47% | correlation coefficient between dose-concentration and accumulation [2]: .813 | IXA accumulation, 14-day repeated-ingestion test ([3]; brain): 0.2 ± 0.1 nmol/g of tissue | IXA accumulation, 14-day repeated-ingestion test ([3]; heart): not detected | IXA accumulation, 14-day repeated-ingestion test ([3]; kidney): 5.8 ± 1.0 nmol/g of tissue | IXA accumulation, 14-day repeated-ingestion test ([3]; liver): 8.6 ± 2.9 nmol/g of tissue | IXA accumulation, 14-day repeated-ingestion test ([3]; lung): 3.2 ± 2.8 nmol/g of tissue | IXA accumulation, 14-day repeated-ingestion test ([3]; plasma): not detected | IXA accumulation, 14-day repeated-ingestion test ([3]; spleen): 3.4 ± 2.0 nmol/g of tissue | IXA accumulation, 14-day repeated-ingestion test ([3]; thymus): 4.3 ± 3.8 nmol/g of tissue
